The text below walks through data of patent US10189839B2, “Tricyclic imidazole compounds as inhibitors of tryptophan hydroxylase” (ACTELION PHARMACEUTICALS LTD, priority 2013, dated 2019).

Each structure is given as a SMILES string.

This experiment addresses T1, full length human TPH1 (Homo sapiens, UniProt P17752).
T1 construct: To generate the enzyme, full length human TPH1 is cloned into the plasmid pET20b(+); made in house; host or cells: E. coli
T1 sequence (P17752 1-444): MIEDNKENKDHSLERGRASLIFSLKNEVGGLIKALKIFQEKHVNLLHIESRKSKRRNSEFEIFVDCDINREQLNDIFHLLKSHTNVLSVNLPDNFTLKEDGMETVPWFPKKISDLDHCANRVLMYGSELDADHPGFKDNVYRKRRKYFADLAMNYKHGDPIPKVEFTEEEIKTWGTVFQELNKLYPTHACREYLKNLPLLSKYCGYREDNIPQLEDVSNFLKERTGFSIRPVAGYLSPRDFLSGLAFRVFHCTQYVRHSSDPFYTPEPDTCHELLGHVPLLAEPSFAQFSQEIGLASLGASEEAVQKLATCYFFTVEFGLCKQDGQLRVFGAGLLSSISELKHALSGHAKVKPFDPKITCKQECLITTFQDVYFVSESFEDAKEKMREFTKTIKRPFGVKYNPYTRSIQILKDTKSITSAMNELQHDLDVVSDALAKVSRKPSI
Kind of experiment: Biochemical in vitro assay using fluorescence readout (TPH1 enzyme activity). The following applies: Table 1, mean where determined several times. Put shortly:
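E. coli-expressed full-length human TPH1 (40-80 nM), affinity- and size-exclusion-purified, incubated 60 min at 15° C. in 0.1M Tris-HCl pH 7.6 with 1 mM DTT, 0.2 mg/ml catalase, 100 μM 6-methyltetrahydropterine and 40 μM L-tryptophan. 5-Hydroxy-L-tryptophan read by fluorescence (ex 300/em 540 nm) after HClO4 quench; IC50 versus vehicle, mean where repeated.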
For orientation: IC50 means the concentration that gives 50% inhibition. Read a low IC50 as greater potency. Molecule `COCCOc1ccc(C2c3c(nc4n3CCCC4)CCN2C(=O)COc2ccc(C(=O)NC3CC3)nc2Cl)c(F)c1` (stereo not shown) [Example 1.27.1, 6-chloro-N-cyclopropyl-5-(2-(1-(2-fluoro-4-(2-methoxyethoxy)phenyl)-3,4,6,7,8,9-hexahydroimidazo[1,2-a:5,4-c′]dipyridin-2(1H)-yl)-2-oxoethoxy)picolinamide] returned an IC50 of 0.06 µM. As for `CCc1nc(NS(C)(=O)=O)ccc1OCC(=O)N1CCc2nc3n(c2C1c1ccc(C)c(F)c1F)CCS3` (stereo not shown) [Example 4.4.1, N-(5-(2-(5-(2,3-difluoro-4-methylphenyl)-2,3,7,8-tetrahydrothiazolo[2′,3′:2,3]imidazo[4,5-c]pyridin-6(5H)-yl)-2-oxoethoxy)-6-ethylpyridin-2-yl)methanesulfonamide], the figure is 0.006 µM. `CS(=O)(=O)Nc1ccc(OCC(=O)N2CCc3nc4n(c3C2c2sccc2F)CCS4)c(Cl)n1` (stereo not shown) [Example 4.6.2, N-(6-chloro-5-(2-(5-(3-fluorothiophen-2-yl)-2,3,7,8-tetrahydrothiazolo[2′,3′:2,3]imidazo[4,5-c]pyridin-6(5H)-yl)-2-oxoethoxy)pyridin-2-yl)methanesulfonamide]: the IC50 was 0.058 µM.

Molecule `Cc1cnc(C2c3c(nc4n3CCCC4)CCN2C(=O)COc2ccc(N(C)S(C)(=O)=O)nc2Cl)c(F)c1` (stereo not shown) [Example 1.6.6, N-(6-chloro-5-(2-(1-(3-fluoro-5-methylpyridin-2-yl)-3,4,6,7,8,9-hexahydroimidazo[1,2-a:5,4-c′]dipyridin-2(1H)-yl)-2-oxoethoxy)pyridin-2-yl)-N-methylmethanesulfonamide] showed an IC50 of 0.044 µM. As for `Cc1cnc(C2c3c(nc4n3CCCC4)CCN2C(=O)COc2ccc(C(=O)N(C)C3CC3)nc2Cl)c(F)c1` (stereo not shown) [Example 1.6.3, 6-chloro-N-cyclopropyl-5-(2-(1-(3-fluoro-5-methyl-pyridin-2-yl)-3,4,6,7,8,9-hexahydroimidazo[1,2-a:5,4-c′]dipyridin-2(1H)-yl)-2-oxoethoxy)-N-methyl-picolinamide], the figure is 0.114 µM. As for `CCc1nc(NS(C)(=O)=O)ccc1OCC(=O)N1CCc2nc3n(c2C1c1ccc(C2CC2)cc1F)CCS3` (stereo not shown) [Example 4.3.1, N-(5-(2-(5-(4-cyclopropyl-2-fluorophenyl)-2,3,7,8-tetrahydrothiazolo[2′,3′:2,3]imidazo[4,5-c]pyridin-6(5H)-yl)-2-oxoethoxy)-6-ethylpyridin-2-yl)methanesulfonamide], the figure is 0.006 µM; as for `CCc1nc(NS(C)(=O)=O)ccc1OCC(=O)N1CCc2nc3n(c2C1c1ccc(C)c(F)c1F)CCCC3` (stereo not shown) [Example 1.9.7, N-(5-(2-(1-(2,3-difluoro-4-methylphenyl)-3,4,6,7,8,9-hexahydroimidazo[1,2-a:5,4-c′]dipyridin-2(1H)-yl)-2-oxoethoxy)-6-ethylpyridin-2-yl)methanesulfonamide], 0.008 µM; as for `CCc1nc(C(=O)NC2CC2)ccc1OCC(=O)N1CCc2nc3n(c2C1c1sc(C)nc1C)CCS3` (stereo not shown) [Example 4.5.3, N-cyclopropyl-5-(2-(5-(2,4-dimethylthiazol-5-yl)-2,3,7,8-tetrahydrothiazolo[2′,3′:2,3]imidazo[4,5-c]pyridin-6(5H)-yl)-2-oxoethoxy)-6-ethylpicolinamide], 0.006 µM. To `CC(=O)N1CCn2c(nc3c2C(c2sc(C(=O)N(C)C)cc2F)N(C(=O)COc2ccc(N4CCOCC4)nc2Cl)CC3)C1` (stereo not shown) [Example 5.7.2, 5-(7-acetyl-2-(2-((2-chloro-6-morpholinopyridin-3-yl)oxy)acetyl)-1,2,3,4,6,7,8,9-octahydropyrido[4′,3′:4,5]imidazo[1,2-a]pyrazin-1-yl)-4-fluoro-N,N-dimethylthiophene-2-carboxamide] belongs 0.006 µM; to `CCc1nc(C(=O)NC2CC2)ccc1OCC(=O)N1CCc2nc3n(c2C1c1sc(C)nc1C)CCCC3` (stereo not shown) [Example 1.10.15, N-cyclopropyl-5-(2-(1-(2,4-dimethylthiazol-5-yl)-3,4,6,7,8,9-hexahydroimidazo[1,2-a:5,4-c′]dipyridin-2(1H)-yl)-2-oxoethoxy)-6-ethylpicolinamide], 0.008 µM; to `CC(=O)N1CCn2c(nc3c2C(c2cnc(N(C)C)s2)N(C(=O)COc2ccc(N4CCOCC4)nc2Cl)CC3)C1` (stereo not shown) [Example 5.6.2, 1-(7-acetyl-1-(2-(dimethylamino)thiazol-5-yl)-3,4,6,7,8,9-hexahydropyrido[4′,3′:4,5]imidazo[1,2-a]pyrazin-2(1H)-yl)-2-((2-chloro-6-morpholinopyridin-3-yl)oxy)ethanone], 0.037 µM. The molecule `COC(=O)c1ccc([C@@H]2c3c(nc4n3CCCC4)CCN2C(=O)COc2ccc(C(=O)NC3CC3)nc2Cl)c(F)c1` [Example 1.23.2, methyl (R)-4-(2-(2-((2-chloro-6-(cyclopropylcarbamoyl)pyridin-3-yl)oxy)acetyl)-1,2,3,4,6,7,8,9-octahydroimidazo[1,2-a:5,4-c′]dipyridin-1-yl)-3-fluorobenzoate] yielded an IC50 of 0.056 µM. As for `CCc1nc(NS(C)(=O)=O)ccc1OCC(=O)N1CCc2nc3n(c2C1c1cnc(C)s1)CCCC3` (stereo not shown) [Example 1.15.1, N-(6-ethyl-5-(2-(1-(2-methylthiazol-5-yl)-3,4,6,7,8,9-hexahydroimidazo[1,2-a:5,4-c′]dipyridin-2(1H)-yl)-2-oxoethoxy)pyridin-2-yl)methanesulfonamide], the figure is 0.036 µM; as for `CCc1nc(N2CCCS2(=O)=O)ccc1OCC(=O)N1CCc2nc3n(c2C1c1ccc(Cl)cc1F)CCC3` (stereo not shown) [Example 2.1.3, 1-(1-(4-chloro-2-fluorophenyl)-3,4,7,8-tetrahydro-1H-pyrrolo[2′,1′:2,3]imidazo[4,5-c]pyridin-2(6H)-yl)-2-((6-(1,1-dioxidoisothiazolidin-2-yl)-2-ethylpyridin-3-yl)oxy)ethanone], 0.008 µM.

`CS(=O)(=O)Nc1ccc(OCC(=O)N2CCc3nc4n(c3C2c2sccc2F)CCOC4)c(Cl)n1` (stereo not shown) [Example 6.6.3, N-(6-chloro-5-(2-(6-(3-fluorothiophen-2-yl)-3,4,8,9-tetrahydro-1H-pyrido[4′,3′:4,5]imidazo[2,1-c][1,4]oxazin-7(6H)-yl)-2-oxoethoxy)pyridin-2-yl)methanesulfonamide] displayed an IC50 of 0.16 µM. `CCc1nc(C)ccc1OCC(=O)N1CCc2nc3n(c2C1c1ccc(C2CC2)cc1F)CCN(CC1CC1)C3` (stereo not shown) [Example 5.2.6, 1-(1-(4-cyclopropyl-2-fluorophenyl)-7-(cyclopropyl-methyl)-3,4,6,7,8,9-hexahydropyrido[4′,3′:4,5]imida-zo[1,2-a]pyrazin-2(1H)-yl)-2-((2-ethyl-6-methylpyridin-3-yl)oxy)ethanone] had an IC50 of 0.016 µM. In turn, `CCc1nc(NS(C)(=O)=O)ccc1OCC(=O)N1CCc2nc3n(c2C1c1sc(C)nc1C)CCS3` (stereo not shown) [Example 4.5.1, N-(5-(2-(5-(2,4-dimethylthiazol-5-yl)-2,3,7,8-tetrahydrothiazolo[2′,3′:2,3]imidazo[4,5-c]pyridin-6(5H)-yl)-2-oxoethoxy)-6-ethylpyridin-2-yl)methanesulfonamide] yielded an IC50 of 0.016 µM.

`CN(C)C(=O)c1ccc(OCC(=O)N2CCc3nc4n(c3C2c2sc(C(=O)N(C)C)cc2F)CCOC4)c(Cl)n1` (stereo not shown) [Example 6.3.1, 6-chloro-5-(2-(6-(5-(dimethylcarbamoyl)-3-fluoro-thiophen-2-yl)-3,4,8,9-tetrahydro-1H-pyrido[4′,3′:4,5]imidazo[2,1-c][1,4]oxazin-7(6H)-yl)-2-oxoethoxy)-N,N-dimethylpicolinamide] had an IC50 of 0.037 µM. As for `Cc1nc(C)c(C2c3c(nc4n3CCCC4)CCN2C(=O)COc2ccc(C(F)(F)F)nc2Cl)s1` (stereo not shown) [Example 1.10.7, 2-((2-chloro-6-(trifluoromethyl)pyridin-3-yl)oxy)-1-(1-(2,4-dimethylthiazol-5-yl)-3,4,6,7,8,9-hexahydroimi-dazo[1,2-a:5,4-c′]dipyridin-2(1H)-yl)ethanone], the figure is 0.177 µM; as for `CCc1nc(C(=O)NC2CC2)ccc1OCC(=O)N1CCc2nc3n(c2C1c1ncc(C)cc1F)CCCC3` (stereo not shown) [Example 1.6.7, N-cyclopropyl-6-ethyl-5-(2-(1-(3-fluoro-5-methylpyridin-2-yl)-3,4,6,7,8,9-hexahydroimidazo[1,2-a:5,4-c′]dipyridin-2(1H)-yl)-2-oxoethoxy)picolinamide], 0.008 µM. As for `CC(=O)N1CCn2c(nc3c2C(c2ncc(C4CC4)cc2F)N(C(=O)COc2ccc(N4CCOCC4)nc2Cl)CC3)C1` (stereo not shown) [Example 5.4.6, 1-(7-acetyl-1-(5-cyclopropyl-3-fluoropyridin-2-yl)-3,4,6,7,8,9-hexahydropyrido[4′,3′:4,5]imidazo[1,2-a]pyrazin-2(1H)-yl)-2-((2-chloro-6-morpholinopyridin-3-yl)oxy)ethanone], the figure is 0.009 µM; as for `CCc1nc(NS(C)(=O)=O)ccc1OCC(=O)N1CCc2nc3n(c2[C@@H]1c1sc(C)nc1C)CCC3` [Example 2.4.2, (R)-N-(5-(2-(1-(2,4-dimethylthiazol-5-yl)-3,4,7,8-tetrahydro-1H-pyrrolo[2′,1′:2,3]imidazo[4,5-c]pyridin-2(6H)-yl)-2-oxoethoxy)-6-ethylpyridin-2-yl)methanesulfonamide], 0.007 µM.
